In patent US8017612B2, “Piperazine compound and use thereof as a HCV polymerase inhibitor” (priority 2006, dated 2011) one finds IC50 data, which are given here for 22 compounds.

Experiment [1] concerns the target T1, HCV polymerase (NS5B) type 1b (Hepatitis C virus genotype 1b, UniProt P26663).
T1 construct: a region encoding NS5B (J Virol 1991 March, 65(3), 1105-13, 544 amino acids after deletion of 47 amino acids on the C-terminal); 6xHis (C); made in house; host or cells: Escherichia coli
The experiment is described as follows: Assay of enzyme (HCV polymerase) inhibitory activity, type 1b enzyme. It is filed as biochemical, HCV BK strain (type 1b). The conditions noted are these: HCV polymerase inhibitory activity IC50, 1b, type 1b enzyme. In outline:
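NS5B from HCV BK strain (type 1b), C-terminal 47 aa deleted, C-terminal His6-tagged, E. coli-expressed, 0.5 μg/ml, with ~450 nt substrate RNA carrying the 3′ UTR (polyU, 3′X) at 5 μg/ml. Incubation 60 min at 25 °C with 50 μM ATP/GTP/CTP, 2 μM UTP plus [3H]UTP, pH 7.5 Tris.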

The target of experiment [2] is T2, HCV polymerase (NS5B) type 1a (Hepatitis C virus genotype 1a, UniProt P26664).
T2 construct: made in house; host or cells: Escherichia coli (by the 'similar method' of the 1b enzyme)
The experiment is described as follows: Assay of enzyme (HCV polymerase) inhibitory activity, type 1a enzyme. It is filed as biochemical, HCV type 1a (cloned from the blood of patients). To be noted: HCV polymerase inhibitory activity IC50, 1a, type 1a enzyme. The essentials:
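Patient-derived type 1a NS5B (C-terminal 47-aa deletion, His-tagged, E. coli-expressed) at 1.5 μg/ml was reacted with 5 μg/ml 3′UTR-containing substrate RNA, 50 μM ATP/GTP/CTP, 2 μM UTP plus [3H]UTP, pH 7.5, 25° C for 60 min. TCA-precipitated RNA radioactivity was counted; IC50 from ± compound.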

For `CC(=O)N1CCN(S(=O)(=O)c2ccc(OC(F)(F)F)cc2)[C@@H](C(=O)NCCCc2cccc(O)c2)C1` [Example 716, (R)-4-acetyl-1-(4-trifluoromethoxy-benzenesulfonyl)-piperazine-2-carboxylic acid [3-(3-hydroxy-phenyl)-propyl]-amide], the IC50 in experiment [1] and in experiment [2] was greater than 1000 nM in each case.

For `CC(=O)N1CCN(S(=O)(=O)c2ccc(OC(F)(F)F)cc2)[C@@H](C(=O)NCCCc2ccc(O)cc2)C1` [Example 717, (R)-4-acetyl-1-(4-trifluoromethoxy-benzenesulfonyl)-piperazine-2-carboxylic acid [3-(4-hydroxy-phenyl)-propyl]-amide], the IC50 in experiment [1] and in experiment [2] was greater than 1000 nM in each case.

Take `CCCc1ccc(CNC(=O)[C@H]2CN(C(C)=O)CCN2S(=O)(=O)c2ccc(OC(F)(F)F)cc2)cn1` [Example 718, (R)-4-acetyl-1-(4-trifluoromethoxy-benzenesulfonyl)-piperazine-2-carboxylic acid (6-propyl-pyridin-3-ylmethyl)-amide]: the concentration for half-maximal inhibition (IC50) – broadly, the midpoint of a concentration-inhibition curve – in experiment [1] is 100 to 1000 nM; in experiment [2], greater than 1000 nM.

Turning to `CC(=O)N1CCN(S(=O)(=O)c2ccc(OC(F)(F)F)cc2)[C@@H](C(=O)NCc2cnc(C)cn2)C1` [Example 719, (R)-4-acetyl-1-(4-trifluoromethoxy-benzenesulfonyl)-piperazine-2-carboxylic acid (5-methyl-pyrazin-2-ylmethyl)-amide], the IC50 in experiment [1] and in experiment [2] was greater than 1000 nM each time.

With `CCCc1ccc(CNC(=O)[C@H]2CN(c3cnc4cncnc4n3)CCN2S(=O)(=O)c2ccc(OC(F)(F)F)cc2)cn1` [Example 720, (R)-4-pteridin-7-yl-1-(4-trifluoromethoxy-benzenesulfonyl)-piperazine-2-carboxylic acid (6-propyl-pyridin-3-ylmethyl)-amide], the IC50 in experiment [1] and in experiment [2] was less than 100 nM in each case.

`Cc1cnc(CNC(=O)[C@H]2CN(c3cnc4cncnc4n3)CCN2S(=O)(=O)c2ccc(OC(F)(F)F)cc2)cn1` [Example 721, (R)-4-pteridin-7-yl-1-(4-trifluoromethoxy-benzenesulfonyl)-piperazine-2-carboxylic acid (5-methyl-pyrazin-2-ylmethyl)-amide]: the IC50 in experiment [1] and in experiment [2] was greater than 1000 nM each time.

Regarding `CCCc1ccc(CNC(=O)[C@H]2CN(c3cnc4cncnc4n3)CCN2S(=O)(=O)c2ccc(OC(F)(F)F)cc2)cc1N` [Example 722, (R)-4-pteridin-7-yl-1-(4-trifluoromethoxy-benzenesulfonyl)-piperazine-2-carboxylic acid 3-amino-4-propyl-benzylamide], the IC50 in experiment [1] was less than 100 nM; in experiment [2], 100 to 1000 nM.

For `CCCc1ccc(CNC(=O)[C@H]2CN(c3cnc4cncnc4n3)CCN2S(=O)(=O)c2ccc(OC(F)(F)F)cc2)cc1O` [Example 723, (R)-4-pteridin-7-yl-1-(4-trifluoromethoxy-benzenesulfonyl)-piperazine-2-carboxylic acid 3-hydroxy-4-propyl-benzylamide], the IC50 is less than 100 nM in experiment [1] and 100 to 1000 nM in experiment [2].

Turning to `CCC(F)(F)c1ccc(CNC(=O)[C@H]2CN(c3cnc4cncnc4n3)CCN2S(=O)(=O)c2ccc(-c3ccccc3O)cc2)cc1` [Example 724, (R)-1-(2′-hydroxy-biphenyl-4-sulfonyl)-4-pteridin-7-yl-piperazine-2-carboxylic acid 4-(1,1-difluoro-propyl)-benzylamide], the IC50 in experiment [1] and in experiment [2] was less than 100 nM throughout.

Regarding `CCC(F)(F)c1ccc(CNC(=O)[C@H]2CN(c3cnc4cncnc4n3)CCN2S(=O)(=O)c2ccc(-c3cccc(O)c3)cc2)cc1` [Example 725, (R)-1-(3′-hydroxy-biphenyl-4-sulfonyl)-4-pteridin-7-yl-piperazine-2-carboxylic acid 4-(1,1-difluoro-propyl)-benzylamide], the IC50 in experiment [1] and in experiment [2] was less than 100 nM each time.

Take `CCC(F)(F)c1ccc(CNC(=O)[C@H]2CN(c3cnc4cnccc4n3)CCN2S(=O)(=O)c2ccc([N+](=O)[O-])cc2)cc1` [Example 726, (R)-1-(4-nitro-benzenesulfonyl)-4-pyrido[3,4-b]pyrazin-2-yl-piperazine-2-carboxylic acid 4-(1,1-difluoro-propyl)-benzylamide]: the IC50 in experiment [1] and in experiment [2] was less than 100 nM in each case.

With `CCC(F)(F)c1ccc(CNC(=O)[C@H]2CN(c3cnc4cnccc4n3)CCN2S(=O)(=O)c2ccc(-c3ccccc3)cc2)cc1` [Example 727, (R)-1-(biphenyl-4-sulfonyl)-4-pyrido[3,4-b]pyrazin-2-yl-piperazine-2-carboxylic acid 4-(1,1-difluoro-propyl)-benzylamide], the IC50 in experiment [1] and in experiment [2] was less than 100 nM each time.

For the compound `CCCc1ccc(CNC(=O)[C@H]2CN(c3ccc(C(=O)OC(C)(C)C)s3)CCN2S(=O)(=O)c2ccc(OC(F)(F)F)cc2)cc1` [Example 728, 5-[(R)-3-(4-propyl-benzylcarbamoyl)-4-(4-trifluoromethoxy-benzenesulfonyl)-piperazin-1-yl]-thiophene-2-carboxylic acid tert-butyl ester], the IC50 in experiment [1] and in experiment [2] was 100 to 1000 nM in each case.

For the compound `CCC(F)(F)c1ccc(CNC(=O)[C@H]2CN(c3cnc4cncnc4n3)CCN2S(=O)(=O)c2ccc3c(c2)CCC(CC(=O)O)CC3)cc1` (stereo partly drawn) [Example 729, (2-{(R)-2-[4-(1,1-difluoro-propyl)-benzylcarbamoyl]-4-pteridin-7-yl-piperazine-1-sulfonyl}-6,7,8,9-tetrahydro-5H-benzocyclohepten-7-yl)-acetic acid], the IC50 in experiment [1] and in experiment [2] was less than 100 nM throughout.

As to `O=C(NCc1ccc(-c2ccccn2)s1)[C@H]1CN(c2cnc3cncnc3n2)CCN1S(=O)(=O)c1ccc(OC(F)(F)F)cc1` [Example 730, (R)-4-pteridin-7-yl-1-(4-trifluoromethoxy-benzenesulfonyl)-piperazine-2-carboxylic acid (5-pyridin-2-yl-thiophen-2-ylmethyl)-amide], the IC50 in experiment [1] and in experiment [2] was less than 100 nM throughout.

Turning to `CCC(F)(F)c1ccc(CNC(=O)[C@H]2CN(c3cnc4cncnc4n3)CCN2S(=O)(=O)c2ccc(-c3ccccc3OCC(=O)O)cc2)cc1` [Example 731, (4′-{(R)-2-[4-(1,1-difluoro-propyl)-benzylcarbamoyl]-4-pteridin-7-yl-piperazine-1-sulfonyl}-biphenyl-2-yloxy)-acetic acid], the IC50 in experiment [1] and in experiment [2] was less than 100 nM each time.

On to `CCC(F)(F)c1ccc(CNC(=O)[C@H]2CN(c3cnc4cncnc4n3)CCN2S(=O)(=O)c2ccc(-c3cccc(OCC(=O)O)c3)cc2)cc1` [Example 732, (4′-{(R)-2-[4-(1,1-difluoro-propyl)-benzylcarbamoyl]-4-pteridin-7-yl-piperazine-1-sulfonyl}-biphenyl-3-yloxy)-acetic acid], for which the IC50 in experiment [1] and in experiment [2] was less than 100 nM in each case.

Consider `CCC(F)(F)c1ccc(CNC(=O)[C@H]2CN(C(=O)CNc3cccnc3)CCN2S(=O)(=O)c2ccc(OC(F)(F)F)cc2)cc1` [Example 733, (R)-4-[2-(pyridin-3-ylamino)-acetyl]-1-(4-trifluoromethoxy-benzenesulfonyl)-piperazine-2-carboxylic acid 4-(1,1-difluoro-propyl)-benzylamide], for which the IC50 in experiment [1] and in experiment [2] was 100 to 1000 nM each time.

With `CCC(F)(F)c1ccc(CNC(=O)[C@H]2CN(C(=O)CNc3ccn(C)n3)CCN2S(=O)(=O)c2ccc(OC(F)(F)F)cc2)cc1` [Example 734, (R)-4-[2-(1-methyl-1H-pyrazol-3-ylamino)-acetyl]-1-(4-trifluoromethoxy-benzenesulfonyl)-piperazine-2-carboxylic acid 4-(1,1-difluoro-propyl)-benzylamide], the IC50 in experiment [1] and in experiment [2] was 100 to 1000 nM in each case.

On to `CCC(F)(F)c1ccc(CNC(=O)[C@H]2CN(c3cnc4cnccc4n3)CCN2S(=O)(=O)c2ccc(C(F)(F)F)cc2)cc1` [Example 735, (R)-4-pyrido[3,4-b]pyrazin-2-yl-1-(4-trifluoromethyl-benzenesulfonyl)-piperazine-2-carboxylic acid 4-(1,1-difluoro-propyl)-benzylamide], for which the IC50 in experiment [1] and in experiment [2] was less than 100 nM each time.

As for `CCC(F)(F)c1ccc(CNC(=O)[C@H]2CN(c3cnc4cnccc4n3)CCN2S(=O)(=O)c2ccc(N(C)C)cc2)cc1` [Example 736, (R)-1-(4-dimethylamino-benzenesulfonyl)-4-pyrido[3,4-b]pyrazin-2-yl-piperazine-2-carboxylic acid 4-(1,1-difluoro-propyl)-benzylamide], the IC50 in experiment [1] and in experiment [2] was less than 100 nM each time.

Take `CCC(F)(F)c1ccc(CNC(=O)[C@H]2CN(c3cnc4cncnc4n3)CCN2S(=O)(=O)c2ccc(Br)s2)cc1` [Example 737, (R)-1-(5-bromo-thiophene-2-sulfonyl)-4-pteridin-7-yl-piperazine-2-carboxylic acid 4-(1,1-difluoro-propyl)-benzylamide]: the IC50 in experiment [1] and in experiment [2] was less than 100 nM in each case.
